Measured values published in patent US10653146B2, “Microbiocidal oxadiazole derivatives” (SYNGENTA PARTICIPATIONS AG, priority 2016, dated 2020).

Assays:
[1] = test system: Puccinia recondita f. Sp. Tritici; experiment: Fungicidal activity against Puccinia recondita f. sp. tritici / wheat / leaf disc preventative (brown rust); type: in vivo; conditions: foliar, 200 ppm in the applied formulation, wheat leaf segments cv. Kanzler, inoculated 1 day after application, assessed 7 to 9 days after application, read-out: disease control compared to untreated control leaf disks
Description: Leaf disks or leaf segments of various plant species are cut from plants grown in a greenhouse. The cut leaf disks or segments are placed in multiwell plates (24-well format) onto water agar. The leaf disks are sprayed with a test solution before (preventative) or after (curative) inoculation. Compounds to be tested are prepared as DMSO solutions (max. 10 mg/ml) which are diluted to the appropriate concentration with 0.025% Tween20 just before spraying. The inoculated leaf disks or segments are incubated under defined conditions (temperature, relative humidity, light, etc.) according to the respective test system. A single evaluation of disease level is carried out 3 to 14 days after inoculation, depending on the pathosystem. Percent disease control relative to the untreated check leaf disks or segments is then calculated. Wheat leaf segments cv. Kanzler were placed on agar in multiwell plates (24-well format) and sprayed with the formulated test compound diluted in water. The leaf disks were inoculated with a spore suspension of the fungus 1 day after application. The inoculated leaf segments were incubated at 19° C. and 75% relative humidity (rh) under a light regime of 12 hours light/12 hours darkness in a climate cabinet and the activity of a compound was assessed as percent disease control compared to untreated when an appropriate level of disease damage appears in untreated check leaf segments (7 to 9 days after application). The following compounds at 200 ppm in the applied formulation give at least 80% disease control in this test when compared to untreated control leaf disks under the same conditions, which show extensive disease development.

[2] = test system: Puccinia recondite f. Sp. Tritici; experiment: Fungicidal activity against Puccinia recondite f. sp. tritici / wheat / leaf disc curative (brown rust); type: in vivo; conditions: foliar, 200 ppm in the applied formulation, wheat leaf segments cv. Kanzler, applied 1 day after inoculation, assessed 6 to 8 days after application, read-out: disease control compared to untreated control leaf disks
Description: (§1) Leaf disks or leaf segments of various plant species are cut from plants grown in a greenhouse. The cut leaf disks or segments are placed in multiwell plates (24-well format) onto water agar. The leaf disks are sprayed with a test solution before (preventative) or after (curative) inoculation. Compounds to be tested are prepared as DMSO solutions (max. 10 mg/ml) which are diluted to the appropriate concentration with 0.025% Tween20 just before spraying. The inoculated leaf disks or segments are incubated under defined conditions (temperature, relative humidity, light, etc.) according to the respective test system. A single evaluation of disease level is carried out 3 to 14 days after inoculation, depending on the pathosystem. Percent disease control relative to the untreated check leaf disks or segments is then calculated.
Wheat leaf segments cv. Kanzler are placed on agar in multiwell plates (24-well format). The leaf segments are then inoculated with a spore suspension of the fungus. Plates were stored in darkness at 19° C. and 75% relative humidity. The formulated test compound diluted in water was applied 1 day after inoculation. The leaf segments were incubated at 19° C. and 75% relative humidity under a light regime of 12 hours light/12 hours darkness in a climate cabinet and the activity of a compound was assessed as percent disease control compared to untreated when an appropriate level of disease damage appears in untreated check leaf segments (6 to 8 days after application).
(§2) The following compounds at 200 ppm in the applied formulation give at least 80% disease control in this test when compared to untreated control leaf disks under the same conditions, which show extensive disease development.

[3] = test system: Glomerella lagenarium (Colletotrichum lagenarium); experiment: Fungicidal activity against Glomerella lagenarium (Colletotrichum lagenarium) liquid culture / cucumber / preventative (anthracnose); type: cell-based; conditions: Colletotrichum orbiculare; 20 ppm in the applied formulation; liquid culture in PDB, 24° C.; 3 to 4 days after application; read-out: disease control compared to untreated control (inhibition of growth measured photometrically)
Description: Mycelia fragments or conidia suspensions of a fungus prepared either freshly from liquid cultures of the fungus or from cryogenic storage, are directly mixed into nutrient broth. DMSO solutions of the test compound (max. 10 mg/ml) are diluted with 0.025% Tween20 by a factor of 50 and 10 μl of this solution is pipetted into a microtiter plate (96-well format). The nutrient broth containing the fungal spores/mycelia fragments is then added to give an end concentration of the tested compound. The test plates are incubated in the dark at 24° C. and 96% relative humidity. The inhibition of fungal growth is determined photometrically after 2 to 7 days, depending on the pathosystem, and percent antifungal activity relative to the untreated check is calculated.
Conidia of the fungus from cryogenic storage are directly mixed into nutrient broth (PDB—potato dextrose broth). After placing a (DMSO) solution of test compound into a microtiter plate (96-well format), the nutrient broth containing the fungal spores is added. The test plates are incubated at 24° C. and the inhibition of growth is measured photometrically 3 to 4 days after application.
The following compounds at 20 ppm in the applied formulation give at least 80% disease control in this test when compared to untreated control under the same conditions, which show extensive disease development.

Phakopsora pachyrhizi = experiment: Fungicidal activity against Phakopsora pachyrhizi / soybean / leaf disc preventative (Asian soybean rust); type: in vivo; conditions: foliar, 200 ppm in the applied formulation, soybean leaf disks, inoculated one day after application, assessed 12 to 14 days after application, read-out: disease control compared to untreated control leaf disks
Description: as §1
Soybean leaf disks are placed on water agar in multiwell plates (24-well format) and sprayed with the formulated test compound diluted in water. One day after application leaf discs are inoculated by spraying a spore suspension on the lower leaf surface. After an incubation period in a climate cabinet of 24-36 hours in darkness at 20° C. and 75% rh leaf disc are kept at 20° C. with 12 h light/day and 75% rh. The activity of a compound is assessed as percent disease control compared to untreated when an appropriate level of disease damage appears in untreated check leaf disks (12 to 14 days after application).
as §2

Row | Structure (SMILES) | pest or weed control at 200 ppm [1] [%] | pest or weed control at 200 ppm [2] [%] | inhibition at 20 ppm [3] [%] | melting point [°C] | pest or weed control at 200 ppm (Phakopsora pachyrhizi) [%]
1 | CC(C)NC(=O)C(=O)c1ccc(-c2noc(C(F)(F)F)n2)cc1 [Compound 1.13, N-isopropyl-2-oxo-2-[4-[5-(trifluoromethyl)-1,2,4-oxadiazol-3-yl]phenyl]acetamide] | ≥ 80 | ≥ 80 | ≥ 80 | 96 to 97.7 | 
2 | N#CCNC(=O)C(=O)c1ccc(-c2noc(C(F)(F)F)n2)cc1 [Compound 1.14, N-(cyanomethyl)-2-oxo-2-[4-[5-(trifluoromethyl)-1,2,4-oxadiazol-3-yl]phenyl]acetamide] | ≥ 80 | ≥ 80 | ≥ 80 | 143.6 to 147.6 | 
3 | CC(C)CNC(=O)C(=O)c1ccc(-c2noc(C(F)(F)F)n2)cc1 [Compound 1.15, N-isobutyl-2-oxo-2-[4-[5-(trifluoromethyl)-1,2,4-oxadiazol-3-yl]phenyl]acetamide] | ≥ 80 | ≥ 80 | ≥ 80 | 83 to 85.3 | 
4 | O=C(NC1CC1)C(=O)c1ccc(-c2noc(C(F)(F)F)n2)cc1 [Compound 1.16, N-cyclopropyl-2-oxo-2-[4-[5-(trifluoromethyl)-1,2,4-oxadiazol-3-yl]phenyl]acetamide] | ≥ 80 | ≥ 80 | ≥ 80 | 113.1 to 116 | 
5 | CNC(=O)C(=O)c1ccc(-c2noc(C(F)(F)F)n2)cc1 [Compound 1.17, N-methyl-2-oxo-2-[4-[5-(trifluoromethyl)-1,2,4-oxadiazol-3-yl]phenyl]acetamide] | ≥ 80 | ≥ 80 | ≥ 80 | 128.1 to 130.8 | 
6 | NC(=O)C(=O)c1ccc(-c2noc(C(F)(F)F)n2)cc1 [Compound 1.18, 2-oxo-2-[4-[5-(trifluoromethyl)-1,2,4-oxadiazol-3-yl]phenyl]acetamide] | ≥ 80 | ≥ 80 | ≥ 80 | 146.7 to 149.7 | 
7 | CN(C)NC(=O)C(=O)c1ccc(-c2noc(C(F)(F)F)n2)cc1 [Compound 1.19, N′,N′-dimethyl-2-oxo-2-[4-[5-(trifluoromethyl)-1,2,4-oxadiazol-3-yl]phenyl]aceto-hydrazide] | ≥ 80 | ≥ 80 | ≥ 80 | 134 to 138 | 
8 | O=C(C(=O)N1CCCC1)c1ccc(-c2noc(C(F)(F)F)n2)cc1 [Compound 1.20, 1-pyrrolidin-1-yl-2-[4-[5-(trifluoromethyl)-1,2,4-oxadiazol-3-yl]phenyl]ethane-1,2-dione] | ≥ 80 | ≥ 80 | ≥ 80 | 104 to 110 | 
9 | CCN1OCC(NC(=O)C(=O)c2ccc(-c3noc(C(F)(F)F)n3)cc2)C1=O (stereo not drawn) [Compound 1.21, N-(2-ethyl-3-oxo-isoxazolidin-4-yl)-2-oxo-2-[4-[5-(trifluoromethyl)-1,2,4-oxadiazol-3-yl]phenyl]acetamide] | ≥ 80 | ≥ 80 | ≥ 80 | 162 to 165 | ≥ 80
10 | COc1cccc(NC(=O)C(=O)c2ccc(-c3noc(C(F)(F)F)n3)cc2)n1 [Compound 1.24, N-(6-methoxy-2-pyridyl)-2-oxo-2-[4-[5-(trifluoromethyl)-1,2,4-oxadiazol-3-yl]phenyl]acetamide] | ≥ 80 |  | ≥ 80 | 118 to 120 | ≥ 80
11 | C=CCNC(=O)C(=O)c1ccc(-c2noc(C(F)(F)F)n2)cc1 [Compound 1.25, N-allyl-2-oxo-2-[4-[5-(trifluoromethyl)-1,2,4-oxadiazol-3-yl]phenyl]acetamide] | ≥ 80 | ≥ 80 | ≥ 80 | 71 to 74 | ≥ 80
12 | O=C(NCc1ccccc1F)C(=O)c1ccc(-c2noc(C(F)(F)F)n2)cc1 [Compound 1.26, N-[(2-fluorophen-yl)methyl]-2-oxo-2-[4-[5-(trifluoromethyl)-1,2,4-oxadiazol-3-yl]phenyl]acetamide] | ≥ 80 | ≥ 80 | ≥ 80 | 84 to 86 | 
13 | O=C(NC1COC1)C(=O)c1ccc(-c2noc(C(F)(F)F)n2)cc1 [Compound 1.27, N-(oxetan-3-yl)-2-oxo-2-[4-[5-(trifluoromethyl)-1,2,4-oxadiazol-3-yl]phenyl]acetamide] | ≥ 80 | ≥ 80 | ≥ 80 | 131 to 136 | 
14 | O=C(C(=O)N1CCOCC1)c1ccc(-c2noc(C(F)(F)F)n2)cc1 [Compound 1.35, 1-morpholino-2-[4-[5-(trifluoromethyl)-1,2,4-oxadiazol-3-yl]phenyl]ethane-1,2-dione] | ≥ 80 | ≥ 80 | ≥ 80 | 140 to 144 | 
15 | CC(C)(C)OC(=O)NCCNC(=O)C(=O)c1ccc(-c2noc(C(F)(F)F)n2)cc1 [Compound 1.37, tert-butyl N-[2-[[2-oxo-2-[4-[5-(trifluoromethyl)-1,2,4-oxadiazol-3-yl]phenyl]acet-yl]amino]eth-yl]carbamate] | ≥ 80 |  |  | 155 to 156 | ≥ 80
16 | COC(CNC(=O)C(=O)c1ccc(-c2noc(C(F)(F)F)n2)cc1)OC [Compound 1.38, N-(2,2-dimethoxyethyl)-2-oxo-2-[4-[5-(trifluoromethyl)-1,2,4-oxadiazol-3-yl]phenyl]acetamide] | ≥ 80 | ≥ 80 | ≥ 80 | 88 to 89 | 
17 | CCCNC(=O)C(=O)c1ccc(-c2noc(C(F)(F)F)n2)cc1 [Compound 1.42, 2-oxo-N-propyl-2-[4-[5-(trifluoromethyl)-1,2,4-oxadiazol-3-yl]phenyl]acetamide] | ≥ 80 | ≥ 80 | ≥ 80 |  | ≥ 80
